Legend:
C. freundii = experiment: Susceptibility testing, MIC by Etest; format: cell-based, Citrobacter freundii
Description: (§1) Susceptibility testing was performed by determining MIC values using the Etest® (AB bioMérieux; Solna, Sweden) on Mueller-Hinton agar plates at 37° C. and results were recorded according to US guidelines (CLSI), as updated in 2012 (2). The breakpoints for cefotaxime are susceptible (S)≤1 and resistant (R)≥4 μg/ml, and for ceftazidime S≤4 and R≥16 μg/ml.

K. oxytoca [1] = experiment: ESBL NDP test using cultured strains; format: biochemical, Klebsiella oxytoca; set-up: key: (+) and (−) referred to color change being, red to yellow or unchanged, respectively; (+) and (−) referred to color change being, red to yellow or unchanged, respectively; settings: K. oxytoca Wild-type penicillinase, n=1
Description: Strains were isolated on Mueller-Hinton agar (Biorad, Marnes-la-Coquette, France) and incubated at 37° C. for 16 h to 24 h before performing the NDP rapid ESBL test as follows. One calibrated inoculated loop (10 μl) of the tested strain was resuspended in 150 μl of 20 mM Tris-HCl lysis buffer previously distributed in Microbead tubes (Ultraclean Microbial DNA isolation kit Bead Tubes, MO BIO Laboratories, Carlsbad, USA). Mechanical lysis of bacteria was performed by strong agitation of Microbead tubes using a vortex adapter (MO BIO Laboratories) for 30 min at room temperature. This bacterial suspension was centrifuged at 10,000×g at room temperature for 5 min. Thirty μl of the supernatant was mixed in a well of a 96-well tray with 100 μl of a 1 ml solution made of 3 mg of purified cefotaxime sodium salt (Sigma-Aldrich, Saint-Quentin-Fallavier, France) in a pH 7.8 phenol red solution. […]. The phenol red solution was made by taking 2 ml of a concentrated pH 8 phenol solution (made from a mixture of phenol red 0.5% in distilled water) to which 16.6 ml of distilled water was added. The pH value was then adjusted to a 7.8 value by adding drops of a 1 N NaOH solution. Mixture of the phenol red solution and the enzymatic suspension being tested was incubated at 37° C. for 30 min. Similarly, culture extracts were analyzed in wells containing cefotaxime and tazobactam (4 mg/ml). […]

K. oxytoca [2] = experiment: Susceptibility testing, MIC by Etest; format: cell-based, Klebsiella oxytoca; settings: K. oxytoca Wild-type penicillinase, n=1
Description: as §1

E. coli = experiment: ESBL NDP test using spiked blood cultures; format: biochemical, Escherichia coli; set-up: key: (+) and (−) referred to color change being, red to yellow or unchanged, respectively; (+) and (−) referred to color change being, red to yellow or unchanged, respectively
Description: (§2) Strains were isolated on Mueller-Hinton agar (Biorad, Marnes-la-Coquette, France) and incubated at 37° C. for 16 h to 24 h before performing the NDP rapid ESBL test as follows. One calibrated inoculated loop (10 μl) of the tested strain was resuspended in 150 μl of 20 mM Tris-HCl lysis buffer previously distributed in Microbead tubes (Ultraclean Microbial DNA isolation kit Bead Tubes, MO BIO Laboratories, Carlsbad, USA). Mechanical lysis of bacteria was performed by strong agitation of Microbead tubes using a vortex adapter (MO BIO Laboratories) for 30 min at room temperature. This bacterial suspension was centrifuged at 10,000×g at room temperature for 5 min. Thirty μl of the supernatant was mixed in a well of a 96-well tray with 100 μl of a 1 ml solution made of 3 mg of purified cefotaxime sodium salt (Sigma-Aldrich, Saint-Quentin-Fallavier, France) in a pH 7.8 phenol red solution. […]. The phenol red solution was made by taking 2 ml of a concentrated pH 8 phenol solution (made from a mixture of phenol red 0.5% in distilled water) to which 16.6 ml of distilled water was added. The pH value was then adjusted to a 7.8 value by adding drops of a 1 N NaOH solution. Mixture of the phenol red solution and the enzymatic suspension being tested was incubated at 37° C. for 30 min. Similarly, culture extracts were analyzed in wells containing cefotaxime and tazobactam (4 mg/ml). Other concentrations of tazobactam and other ß-lactamase inhibitors were tested giving less clear results (data not shown). […] This definition of test positivity will be applied throughout the study.
Rapid detection of ESBL producers was attempted from spiked blood cultures which positivity was assessed using the BactAlert blood culture system (bioMérieux). […] This inoculum was reached after 24-48 h incubation in this BactAlert system. Strains were inoculated into blood culture system in presence of 10 ml of sterile blood. The panel of strains used for spiking blood cultures included either non-ESBL producers (n=24) or ESBL producers (n=64) (Table 4). Spiked blood cultures were made of 1×10^3 CFU of each strain and incubated 24 to 48 h before a positivity of the blood culture was detected by the BactAlert system. Then, 15 ml of spiked blood culture were transferred in a sterile tube and centrifuged at 1,500×g for 3 min to pellet the red blood cells. The supernatant was recovered and centrifuged for 15 min at 4,000×g to pellet the bacteria. The bacterial pellet was then resuspended in 500 μl of distilled water, transferred in 1.5 ml tube and thoroughly vortexed for 15 sec to lyse the remnant red blood cells and wash the bacterial pellet. After 5 min of centrifugation at 10,000×g, the bacterial pellet was resuspended in 150 μl of 20 mM Tris-HCl lysis buffer and distributed in beadtubes. The ESBL NDP test was then applied to this pellet as described above. Experiments were systematically performed in triplicate.

E. cloacae = experiment: ESBL NDP test using cultured strains; format: biochemical, Enterobacter cloacae; set-up: key: (+) and (−) referred to color change being, red to yellow or unchanged, respectively; (+) and (−) referred to color change being, red to yellow or unchanged, respectively
Description: as §2

CO/N=C(\C(=O)N[C@@H]1C(=O)N2C(C(=O)O)=C(COC(C)=O)CS[C@H]12)c1csc(N)n1 [CTX, cefotaxime]
+: ESBL NDP Test from: Blood culture (E. coli; E. coli 09.11, TEM-52) | ESBL NDP Test from: Blood culture (E. coli; E. coli 09.123, TEM-133) | ESBL NDP Test from: Blood culture (E. coli; E. coli 09.124, TEM-52) | ESBL NDP Test from: Blood culture (E. coli; E. coli 09.129, SHV-12) | ESBL NDP Test from: Blood culture (E. coli; E. coli 09.173, SHV-12) | ESBL NDP Test from: Blood culture (E. coli; E. coli 09.187, SHV-2a) | ESBL NDP Test from: Blood culture (E. coli; E. coli 09.193, SHV-12) | ESBL NDP Test from: Blood culture (E. coli; E. coli 09.207, SHV-2a) | ESBL NDP Test from: Blood culture (E. coli; E. coli 09.225, TEM-52) | ESBL NDP Test from: Blood culture (E. coli; E. coli 09.40, TEM-52) | ESBL NDP Test from: Blood culture (E. coli; E. coli 09.41, SHV-12) | ESBL NDP Test from: Blood culture (E. coli; E. coli 09.66, TEM-52) | ESBL NDP Test from: Blood culture (E. coli; E. coli 09.73, TEM-52) | ESBL NDP Test from: Blood culture (E. coli; E. coli 09.79, SHV-12) | ESBL NDP Test from: Blood culture (E. coli; E. coli 09.92, TEM-52) | ESBL NDP Test from: Blood culture (E. coli; E. coli 10.104, CTX-M-1) | ESBL NDP Test from: Blood culture (E. coli; E. coli 10.11, CTX-M-14) | ESBL NDP Test from: Blood culture (E. coli; E. coli 10.121, CTX-M-2) | ESBL NDP Test from: Blood culture (E. coli; E. coli 10.124, CTX-M-14) | ESBL NDP Test from: Blood culture (E. coli; E. coli 10.130, CTX-M-3) | ESBL NDP Test from: Blood culture (E. coli; E. coli 10.13, CTX-M-14) | ESBL NDP Test from: Blood culture (E. coli; E. coli 10.132, CTX-M-2) | ESBL NDP Test from: Blood culture (E. coli; E. coli 10.16, CTX-M-15) | ESBL NDP Test from: Blood culture (E. coli; E. coli 10.178, CTX-M-27) | ESBL NDP Test from: Blood culture (E. coli; E. coli 10.198, CTX-M-27) | ESBL NDP Test from: Blood culture (E. coli; E. coli 10.204, CTX-M-27) | ESBL NDP Test from: Blood culture (E. coli; E. coli 10.207, CTX-M-27) | ESBL NDP Test from: Blood culture (E. coli; E. coli 10.23, CTX-M-2) | ESBL NDP Test from: Blood culture (E. coli; E. coli 10.32, CTX-M-14) | ESBL NDP Test from: Blood culture (E. coli; E. coli 10.33, CTX-M-15) | ESBL NDP Test from: Blood culture (E. coli; E. coli 10.36, CTX-M-1) | ESBL NDP Test from: Blood culture (E. coli; E. coli 10.38, CTX-M-1) | ESBL NDP Test from: Blood culture (E. coli; E. coli 10.43, CTX-M-15) | ESBL NDP Test from: Blood culture (E. coli; E. coli 10.46, CTX-M-14) | ESBL NDP Test from: Blood culture (E. coli; E. coli 10.49, CTX-M-15) | ESBL NDP Test from: Blood culture (E. coli; E. coli 10.53, CTX-M-9) | ESBL NDP Test from: Blood culture (E. coli; E. coli 10.64, CTX-M-32) | ESBL NDP Test from: Blood culture (E. coli; E. coli 10.73, CTX-M-27) | ESBL NDP Test from: Blood culture (E. coli; E. coli 10.74, CTX-M-15) | ESBL NDP Test from: Blood culture (E. coli; E. coli 10.95, CTX-M-1) | ESBL NDP Test from: Blood culture (E. coli; E. coli A7R5, SHV-3) | ESBL NDP Test from: Blood culture (E. coli; E. coli C5O52, CTX-M-28) | ESBL NDP Test from: Blood culture (E. coli; E. coli Ec13 SYD, CMY-2) | ESBL NDP Test from: Blood culture (E. coli; E. coli LOU, ACC-1) | ESBL NDP Test from: Colonies (E. cloacae; E. cloacae 09.57, SHV-12) | ESBL NDP Test from: Colonies (E. cloacae; E. cloacae 10.75, CTX-M-15) | ESBL NDP Test from: Colonies (E. cloacae; E. cloacae 10.87, CTX-M-15) | Test (color change) (E. cloacae; E. cloacae CTX-M-14, n=1) | Test (color change) (E. cloacae; E. cloacae CTX-M-15, n=17) | Test (color change) (E. cloacae; E. cloacae GES-5, n=1) | Test (color change) (E. cloacae; E. cloacae PER-1, n=1) | Test (color change) (E. cloacae; E. cloacae SHV-5, n=1) | Test (color change) (E. cloacae; E. cloacae SHV-12, n=6) | Test (color change) (E. cloacae; E. cloacae TEM-3, n=2) | Test (color change) (E. cloacae; E. cloacae VEB-1, n=1) | Test (color change) (E. cloacae; E. cloacae, overexpressed chromosome-encoded cephalosporinase, n=3)
0.12 µg/mL: MICs range (C. freundii; C. freundii Wild-type, chromosome-encoded cephalosporinase, n=1)
−: Test (color change) (K. oxytoca [1]) | ESBL NDP Test from: Blood culture (E. coli; E. coli (Belgium), ACC-1) | ESBL NDP Test from: Blood culture (E. coli; E. coli BG 1106 5698, Penicillinase) | ESBL NDP Test from: Blood culture (E. coli; E. coli BG 1106 6252, Wild-type) | ESBL NDP Test from: Blood culture (E. coli; E. coli BG 1106 6367, Wild-type) | ESBL NDP Test from: Blood culture (E. coli; E. coli BG 1106 7202, Penicillinase) | ESBL NDP Test from: Blood culture (E. coli; E. coli BG 1107 8873, Wild-type) | ESBL NDP Test from: Blood culture (E. coli; E. coli BG 1108 6157, Penicillinase) | ESBL NDP Test from: Blood culture (E. coli; E. coli GOU, DHA-1) | ESBL NDP Test from: Colonies (E. cloacae; E. cloacae BG 1106 7725, Wild-type) | ESBL NDP Test from: Colonies (E. cloacae; E. cloacae BG 1106 7746, Wild-type) | ESBL NDP Test from: Colonies (E. cloacae; E. cloacae BG 1107 4118, Wild-type) | Test (color change) (E. cloacae; E. cloacae Wild-type, chromosome-encoded cephalosporinase, n=5) | Test (color change) (E. cloacae; E. cloacae, overexpressed chromosome-encoded cephalosporinase, n=2)
>16 µg/mL: MICs range (C. freundii; C. freundii CTX-M-15, n=3) | MICs range (C. freundii; C. freundii TEM-3, n=1)
0.03 µg/mL: MICs range (K. oxytoca [2])

Source: US10793892B2, “Method for detecting the presence of expanded spectrum β-lactamase-producing bacteria in a sample” (INSERM (INSTITUT NATIONAL DE LA SANTE ET DE LA RECHERCHE …, priority 2011, dated 2020)
